# Source: patent US20070117743A1, “New antitumoral compounds” (priority 2003, published 2007)
# Where a SMILES comes first, the peptide text is derived from it. Bridges are numbered along the chain shown (N, C = ends). [ ]: non-standard residue; d: D form. The star is where a group is joined. d(aIle) = CC[C@H](C)[C@@H](N)C(=O)O; d(aThr) = C[C@@H](O)[C@@H](N)C(=O)O; Hexanoyl(5-Me) = CC(C)CCCC(=O)*; Orn = NCCC[C@H](N)C(=O)O; Dhb = C/C=C(\N)C(=O)O
# How the values were obtained:
# Assay type in all cases: cell-based, human
# PANC-1 = assay: SRB colorimetric assay of cell growth and viability, PANC-1; conditions: 48 hours exposure; for CC50: read-out: LC50 PANC-1
# LNCaP = assay: SRB colorimetric assay of cell growth and viability, LNCaP; conditions: 48 hours exposure; for GI50: read-out: GI50 LN-caP; for CC50: read-out: LC50 LN-caP
# K-562 = assay: SRB colorimetric assay of cell growth and viability, K-562; conditions: 48 hours exposure; for CC50: read-out: LC50 K-562
# DU-145 = assay: SRB colorimetric assay of cell growth and viability, DU-145; conditions: 48 hours exposure
# IGROV-1 = assay: SRB colorimetric assay of cell growth and viability, IGROV-1; conditions: 48 hours exposure
# HT-29 = assay: SRB colorimetric assay of cell growth and viability, HT-29; conditions: 48 hours exposure; for GI50: read-out: GI50 HT-29; for CC50: read-out: LC50 HT-29
# A-549 = assay: SRB colorimetric assay of cell growth and viability, A-549; conditions: 48 hours exposure; for GI50: read-out: GI50 A-549; for CC50: read-out: LC50 A-549
# HeLa-APL = assay: SRB colorimetric assay of cell growth and viability, HeLa-APL; conditions: 48 hours exposure; for CC50: read-out: LC50 HELA-APL
# LoVo = assay: SRB colorimetric assay of cell growth and viability, LoVo; conditions: 48 hours exposure; for CC50: read-out: LC50 LOVO
# SK-MEL-28 = assay: SRB colorimetric assay of cell growth and viability, SK-MEL-28; conditions: 48 hours exposure; for CC50: read-out: LC50 MEL-28
# SK-BR-3 = assay: SRB colorimetric assay of cell growth and viability, SK-BR-3; conditions: 48 hours exposure
# HeLa = assay: SRB colorimetric assay of cell growth and viability, HeLa; conditions: 48 hours exposure; for CC50: read-out: LC50 HELA
# IGROV-ET = assay: SRB colorimetric assay of cell growth and viability, IGROV-ET; conditions: 48 hours exposure; for CC50: read-out: LC50 IGROV-ET
Compound,GI50 (PANC-1) [µM],TGI PANC-1 (PANC-1) [Molar],CC50 (PANC-1) [µM],TGI LN-caP (LNCaP) [Molar],GI50 (LNCaP) [µM],CC50 (LNCaP) [µM],GI50 (K-562) [µM],TGI K-562 (K-562) [Molar],CC50 (K-562) [µM],GI50 (DU-145) [µM],LC50 (concentration causing 50% net cell kill) (DU-145) [µM],TGI DU-145 (DU-145) [Molar],GI50 (IGROV-1) [µM],LC50 (concentration causing 50% net cell killing) (IGROV-1) [µM],TGI IGROV (IGROV-1) [Molar],TGI HT-29 (HT-29) [Molar],GI50 (HT-29) [µM],CC50 (HT-29) [µM],TGI A-549 (A-549) [Molar],GI50 (A-549) [µM],further results
"C/C=C1\NC(=O)[C@H](Cc2ccccc2)NC(=O)[C@@H](C(C)C)NC(=O)[C@@H]([C@@H](C)CC)NC(=O)[C@H](NC(=O)[C@H](NC(=O)[C@H](CCCN)NC(=O)[C@H]2CCCN2C(=O)[C@H](NC(=O)[C@H](CC(C)C)NC(=O)[C@@H](NC(=O)[C@H](NC(=O)CCCC(C)C)C(C)C)[C@@H](C)O)C(C)C)[C@@H](C)CC)[C@@H](C)OC(=O)[C@H](C(C)C)NC1=O [Compound 45, [Leu^11]-KF] ({Hexanoyl(5-Me)}-[dV]TL[dV][dP][Orn][d(aIle)][d(aThr)][d(aIle)][dV]F[Dhb]V; ester 8-C)",2.32,6.70E−06,6.7,2.35E−06,1.02,5.44,1.49,3.10E−06,≥ 6.4,0.731,3.54,1.61E−06,0.332,4.02,1.23E−06,1.17E−06,0.316,3.66,1.90E−06,0.925,CC50 (A-549): 3.93 µM; GI50 (HeLa-APL): 0.912 µM; TGI HELA-APL (HeLa-APL): 1.94E−06 Molar; CC50 (HeLa-APL): 4.13 µM; GI50 (LoVo): 0.113 µM; TGI LOVO (LoVo): 2.32E−07 Molar; CC50 (LoVo): 0.476 µM; GI50 (SK-MEL-28): 1.03 µM; TGI MEL-28 (SK-MEL-28): 2.05E−06 Molar; CC50 (SK-MEL-28): 4.11 µM; GI50 (SK-BR-3): 0.163 µM; LC50 (SK-BR-3): 1.68 µM; TGI SK-BR-3 (SK-BR-3): 4.10E−07 Molar; GI50 (HeLa): 0.938 µM; TGI HELA (HeLa): 2.16E−06 Molar; CC50 (HeLa): 4.98 µM; GI50 (IGROV-ET): 0.421 µM; TGI IGROV-ET (IGROV-ET): 1.30E−06 Molar; CC50 (IGROV-ET): 3.69 µM
"C/C=C1\NC(=O)[C@H](Cc2ccccc2)NC(=O)[C@@H](C(C)C)NC(=O)[C@@H]([C@@H](C)CC)NC(=O)[C@H](NC(=O)[C@H](NC(=O)[C@H](CCCN)NC(=O)[C@H]2CCCN2C(=O)[C@H](NC(=O)[C@H](NC(=O)[C@@H](NC(=O)[C@H](NC(=O)CCCC(C)C)C(C)C)[C@@H](C)O)C(C)C)C(C)C)[C@@H](C)CC)[C@@H](C)OC(=O)[C@H](C(C)C)NC1=O [Compound 46, [D-Val^11]-KF]",3.12,6.77E−06,≥ 6.77,6.77E−06,2.42,≥ 6.77,3.04,6.77E−06,≥ 6.77,2.43,≥ 6.77,6.77E−06,1.5,≥ 6.77,3.55E−06,6.77E−06,2.5,≥ 6.77,6.77E−06,3.67,CC50 (A-549): ≥ 6.77 µM; GI50 (HeLa-APL): 3.3 µM; TGI HELA-APL (HeLa-APL): 6.77E−06 Molar; CC50 (HeLa-APL): ≥ 6.77 µM; GI50 (LoVo): 1.2 µM; TGI LOVO (LoVo): 2.30E−06 Molar; CC50 (LoVo): 4.4 µM; GI50 (SK-MEL-28): ≥ 6.77 µM; TGI MEL-28 (SK-MEL-28): 6.77E−06 Molar; CC50 (SK-MEL-28): ≥ 6.77 µM; GI50 (SK-BR-3): 1.35 µM; LC50 (SK-BR-3): 5.62 µM; TGI SK-BR-3 (SK-BR-3): 2.75E−06 Molar; GI50 (HeLa): 4.61 µM; TGI HELA (HeLa): 6.77E−06 Molar; CC50 (HeLa): ≥ 6.77 µM; GI50 (IGROV-ET): 1.67 µM; TGI IGROV-ET (IGROV-ET): 3.62E−06 Molar; CC50 (IGROV-ET): ≥ 6.77 µM
"C/C=C1\NC(=O)[C@H](Cc2ccccc2)NC(=O)[C@@H](C(C)C)NC(=O)[C@@H]([C@@H](C)CC)NC(=O)[C@H](NC(=O)[C@H](NC(=O)[C@H](CCCN)NC(=O)[C@H]2CCCN2C(=O)[C@H](NC(=O)[C@@H]2CCCN2C(=O)[C@@H](NC(=O)[C@H](NC(=O)CCCC(C)C)C(C)C)[C@@H](C)O)C(C)C)[C@@H](C)CC)[C@@H](C)OC(=O)[C@H](C(C)C)NC1=O [Compound 47, [Pro^11]-KF] ({Hexanoyl(5-Me)}-[dV]TP[dV][dP][Orn][d(aIle)][d(aThr)][d(aIle)][dV]F[Dhb]V; ester 8-C)",5.63,6.78E−06,6.78,6.78E−06,3.45,6.78,6.78,6.78E−06,6.78,6.78,6.78,6.78E−06,6.78,6.78,6.78E−06,6.78E−06,6.78,6.78,6.78E−06,6.78,CC50 (A-549): 6.78 µM; GI50 (HeLa-APL): 6.78 µM; TGI HELA-APL (HeLa-APL): 6.78E−06 Molar; CC50 (HeLa-APL): 6.78 µM; GI50 (LoVo): 5.85 µM; TGI LOVO (LoVo): 6.78E−06 Molar; CC50 (LoVo): 6.78 µM; GI50 (SK-MEL-28): 6.78 µM; TGI MEL-28 (SK-MEL-28): 6.78E−06 Molar; CC50 (SK-MEL-28): 6.78 µM; GI50 (SK-BR-3): 6.78 µM; LC50 (SK-BR-3): 6.78 µM; TGI SK-BR-3 (SK-BR-3): 6.78E−06 Molar; GI50 (HeLa): 6.78 µM; TGI HELA (HeLa): 6.78E−06 Molar; CC50 (HeLa): 6.78 µM; GI50 (IGROV-ET): 6.78 µM; TGI IGROV-ET (IGROV-ET): 6.78E−06 Molar; CC50 (IGROV-ET): 6.78 µM
"C/C=C1\NC(=O)[C@H](Cc2ccccc2)NC(=O)[C@@H](C(C)C)NC(=O)[C@@H]([C@@H](C)CC)NC(=O)[C@H](NC(=O)[C@H](NC(=O)[C@H](CCCN)NC(=O)[C@H]2CCCN2C(=O)[C@H](NC(=O)[C@H](CCC(N)=O)NC(=O)[C@@H](NC(=O)[C@H](NC(=O)CCCC(C)C)C(C)C)[C@@H](C)O)C(C)C)[C@@H](C)CC)[C@@H](C)OC(=O)[C@H](C(C)C)NC1=O [Compound 48, [Gln^11]-KF] ({Hexanoyl(5-Me)}-[dV]TQ[dV][dP][Orn][d(aIle)][d(aThr)][d(aIle)][dV]F[Dhb]V; ester 8-C)",5.1,6.64E−06,6.64,6.64E−06,3.1,6.64,6.64,6.64E−06,6.64,6.64,6.64,6.64E−06,6.64,6.64,6.64E−06,6.64E−06,6.64,6.64,6.64E−06,5.82,CC50 (A-549): 6.64 µM; GI50 (HeLa-APL): 6.64 µM; TGI HELA-APL (HeLa-APL): 6.64E−06 Molar; CC50 (HeLa-APL): 6.64 µM; GI50 (LoVo): 5.17 µM; TGI LOVO (LoVo): 6.64E−06 Molar; CC50 (LoVo): 6.64 µM; GI50 (SK-MEL-28): 6.64 µM; TGI MEL-28 (SK-MEL-28): 6.64E−06 Molar; CC50 (SK-MEL-28): 6.64 µM; GI50 (SK-BR-3): 6.64 µM; LC50 (SK-BR-3): 6.64 µM; TGI SK-BR-3 (SK-BR-3): 6.64E−06 Molar; GI50 (HeLa): 6.64 µM; TGI HELA (HeLa): 6.64E−06 Molar; CC50 (HeLa): 6.64 µM; GI50 (IGROV-ET): 6.64 µM; TGI IGROV-ET (IGROV-ET): 6.64E−06 Molar; CC50 (IGROV-ET): 6.64 µM
